{"source": "patent US20070009455A1", "about": "(priority 2003, published 2007)", "key": {"Human skin melanocytes": {"test_system": "Human skin melanocytes", "assay": "Whitening activity test: melanin production in skin melanocytes", "assay_type": "cell-based", "conditions": "for Melanin production inhibitory activity (%): concentration of each test sample: 0.02%", "procedure": "The whitening activity test based on […] of skin melanocytes was performed as the following method: • 1. Human skin melanocytes in MGM (Melanocyte Growth Media, Clonetics) media were incubated at a 5% CO2 incubator at 37° C. • 2. A predetermined number of cells (2×10^6) were cultured in75T culture flasks. When cell confluence was identified, test samples of a predetermined concentration were loaded in the cell cultures and incubated for 2-3 days. • 3. The cultures were removed, washed with phosphate buffered saline (PBS), and treated with trypsin solution, to harvest cells. • 4. The harvested cells were centrifuged to obtain cell pellets.\nThe colors of the cell pellets were observed. The cell pellets were dissolved in 1N NaOH and the absorbance was measured at 475 nm. • 5. The concentration of melanin was calculated by using absorbance values obtained from melanin standard and then converted to the concentration of melanin/the total protein concentration of melanocytes. […]=[(A−B)/A]×100\nA: concentration of melain/concentration of protein in control\n(control: melanocytes normally grown in a culture medium containing no test samples)\nB: concentration of melain/concentration of protein in each test sample\nTo evaluate whitening activity, inhibitory activity of the compositions of Examples 7 and Comparative Examples 6-8 against melanin production in melanocytes of healthy persons were measured and the results are summarized in Table 13 below."}, "tyrosinase": {"test_system": "tyrosinase", "assay": "Tyrosinase inhibitory activity test", "assay_type": "biochemical", "procedure": "Tyrosine used as a substrate in main processes of melanin biosynthesis, mushroom tyrosinase, or tyrosinase fragments separated from melanocytes was added to test samples and incubated for a predetermined time. The absorbance of dopachrome that was a reaction product was measured at an absorption wavelength to evaluate the whitening effects of the test samples. Tyrosinase inhibitory activity (%)=100−((ODexp−ODcon)/ODstd×100)\nODexp: Absorbance of test sample containing tyrosinase\nODcon: Absorbance of test sample containing no tyrosinase\nODstd: Absorbance of standard sample containing tyrosinase"}, "[1]": {"assay": "Free radical scavenging activity test (DPPH)", "procedure": "When methanol solutions of test samples were converted to clear solutions due to scavenging of relatively stable deep blue-colored DPPH(1,1-diphenyl-2-hydrazyl) radicals, the degree of reduction of the absorbance of the methanol solutions was measured at 516 nm. Free radical scavenging activity (%)=100−( (ODexp−ODcon)/ODstd×100)\nODexp: Absorbance of test sample containing DPPH\nODcon: Absorbance of test sample containing no DPPH\nODstd: Absorbance of standard sample containing DPPH"}}}
{"smiles": "OC[C@H]1O[C@@H](Oc2ccc(O)cc2)[C@H](O)[C@@H](O)[C@@H]1O", "note": "[Albutin]", "values": [{"measurement": "Melanin production inhibitory activity (%)", "setting": "Human skin melanocytes", "value": 2.00, "unit": "%"}]}
{"smiles": "O=c1cc(CO)occ1O", "note": "[Cojic acid]", "values": [{"measurement": "Tyrosinase inhibitory activity (in words)", "setting": "tyrosinase", "value": "excellent tyrosinase inhibitory activity"}, {"measurement": "Melanin production inhibitory activity (%)", "setting": "Human skin melanocytes", "value": 22.62, "unit": "%"}]}
{"smiles": "Oc1ccc(/C=C/c2cc(O)cc(O)c2)cc1", "note": "[Resveratrol]", "values": [{"measurement": "IC50: 50% tyrosinase activity inhibition concentration", "setting": "tyrosinase", "value": 2, "unit": "µg/mL"}, {"measurement": "Tyrosinase inhibitory activity (in words)", "setting": "tyrosinase", "value": "excellent tyrosinase inhibitory activity"}, {"measurement": "Inhibitory activity of melanin production (in words)", "setting": "Human skin melanocytes; 0.02%", "value": "excellent inhibitory activity of melanin production"}, {"measurement": "Melanin production inhibitory activity (%)", "setting": "Human skin melanocytes", "value": 53.17, "unit": "%"}]}
{"smiles": "O=C1O[C@H]([C@@H](O)CO)C(O)=C1O", "note": "[Vitamin C]", "values": [{"measurement": "Melanin production inhibitory activity (%)", "setting": "Human skin melanocytes", "value": 19.72, "unit": "%"}, {"measurement": "Free radical scavenging (in words)", "setting": "[1]", "value": "effective free radical scavengers"}]}
